The source of these data is patent publication US11319315B2, “Cyclohexyl acid triazole azoles as LPA antagonists” (BRISTOL-MYERS SQUIBB COMPANY, priority 2017, dated 2022).

Molecules are shown by their SMILES. pIC50: −log10 of the molar value.

T1 sequence (Q92633 whole entry): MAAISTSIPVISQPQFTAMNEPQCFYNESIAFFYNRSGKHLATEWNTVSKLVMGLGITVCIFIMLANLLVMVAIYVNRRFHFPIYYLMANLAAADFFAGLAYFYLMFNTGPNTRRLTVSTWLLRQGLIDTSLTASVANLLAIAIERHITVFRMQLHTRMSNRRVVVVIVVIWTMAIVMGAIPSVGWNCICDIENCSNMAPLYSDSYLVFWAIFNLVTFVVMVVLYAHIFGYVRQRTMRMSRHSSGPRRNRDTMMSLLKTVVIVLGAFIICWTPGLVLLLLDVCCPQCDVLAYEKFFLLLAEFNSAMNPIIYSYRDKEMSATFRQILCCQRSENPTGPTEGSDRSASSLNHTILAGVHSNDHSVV

The first assay addresses T1, human LPA1 (Homo sapiens, UniProt Q92633).
T1 construct: expressed in transfected cells; host or cells: Chinese hamster ovary (CHO) cells
Nature of the assay: LPA1 functional antagonist assay (LPA-induced calcium flux in CHO cells overexpressing human LPA1). Type of assay: cell-based. The conditions noted are these: inhibition of calcium flux induced by 10 nM LPA, CHO cells overexpressing human LPA1; read-out: hLPA1 IC50. The procedure, abridged: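 CHO cells overexpressing human LPA1, dye-loaded 30 min at 37 °C, then given compound (0.08 nM–5 μM final, 0.5% DMSO) in HBSS/20 mM HEPES/0.1% fatty-acid-free BSA for 20 min at room temperature before 10 nM LPA. IC50 as 50% inhibition of LPA-evoked calcium flux, 4-parameter logistic fit.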
Background: A change in cytosolic calcium serves as a functional read-out for many receptors and channels.
As a reminder, the pIC50 is the negative decadic logarithm of the IC50, by convention in mol/L. Regarding `Cc1nc(-c2nnn(C)c2Cc2noc(CC3CC3)n2)ccc1O[C@H]1CCC[C@H](C(=O)O)C1` [Example 228, (1S,3S)-3-((6-(5-((5-(cyclopropylmethyl)-1,2,4-oxadiazol-3-yl)methyl)-1-methyl-1H-1,2,3-triazol-4-yl)-2-methylpyridin-3-yl)oxy)cyclohexane-1-carboxylic acid], the pIC50 was 7.72.

`Cc1nc(-c2nnn(C)c2COc2noc(CC3CC3)n2)ccc1O[C@H]1CCC[C@H](C(=O)O)C1` [Example 117, (1S,3S)-3-((6-(5-(((5-(cyclopropylmethyl)-1,2,4-oxadiazol-3-yl)oxy)methyl)-1-methyl-1H-1,2,3-triazol-4-yl)-2-methylpyridin-3-yl)oxy)cyclohexane-1-carboxylic acid]: the pIC50 is 7.96.

For the compound `Cc1nc(-c2nnn(C)c2CNc2nc(Cc3ccccc3)no2)ccc1O[C@H]1CCC[C@H](C(=O)O)C1` [Example 63], the pIC50 was 7.42.

For `CCc1nc(OCc2c(-c3ccc(O[C@H]4CCC[C@H](C(=O)O)C4)c(C)n3)nnn2C)no1` [Example 129], the pIC50 was 7.39.

Take `Cc1nc(-c2nnn(C)c2CNc2noc(C3CC3C)n2)ccc1O[C@H]1CCC[C@H](C(=O)O)C1` (stereo partly drawn) [Example 180]: the pIC50 is 7.38.

As for `COCCc1nc(NCc2c(-c3ccc(O[C@H]4CCC[C@H](C(=O)O)C4)c(C)n3)nnn2C)no1` [Example 172], the pIC50 is 6.92.

Consider `CCCC(C)c1nc(NCc2c(-c3ccc(O[C@H]4CCC[C@H](C(=O)O)C4)cn3)nnn2C)no1` (mixture of isomers) [Example 291, (1S,3S)-3-((6-(1-methyl-5-(((5-(pentan-2-yl)-1,2,4-oxadiazol-3-yl)amino)methyl)-1H-1,2,3-triazol-4-yl)pyridin-3-yl)oxy)cyclohexane-1-carboxylic acid, racemate], for which the pIC50 was 7.23.

For the compound `Cc1nc(-c2nnn(C)c2Cn2cnnc2CC2CC2)ccc1O[C@H]1CCC[C@H](C(=O)O)C1` [Example 209], the pIC50 is 5.68.

On to `CCc1nsc(NCc2c(-c3ccc(O[C@H]4CCC[C@H](C(=O)O)C4)c(C)n3)nnn2C)n1` [Example 118], for which the pIC50 was 6.04.

For the compound `CCCOc1nnn(Cc2c(-c3ccc(O[C@H]4CCC[C@H](C(=O)O)C4)c(C)n3)nnn2C)n1` [Example 340], the pIC50 is 7.01.

Regarding `Cc1nc(-c2nnn(C)c2CNc2noc(COC(C)C)n2)ccc1O[C@H]1CCC[C@H](C(=O)O)C1` [Example 145], the pIC50 is 7.51.

As to `Cc1nc(-c2nnn(C)c2CNc2noc(CCC(C)(C)F)n2)ccc1O[C@H]1CCC[C@H](C(=O)O)C1` [Example 179], the pIC50 was 7.36.

On to `Cc1nc(-c2nnn(C)c2CNc2nc(CC3CC3)no2)ccc1O[C@H]1CCC[C@H](C(=O)O)C1` [Example 64], for which the pIC50 is 6.98.

`Cc1nc(-c2nnn(C)c2Cn2cc(C3CC3)nn2)ccc1O[C@H]1CCC[C@H](C(=O)O)C1` [Example 267, (1S,3S)-3-((6-(5-((4-cyclopropyl-1H-1,2,3-triazol-1-yl)methyl)-1-methyl-1H-1,2,3-triazol-4-yl)-2-methylpyridin-3-yl)oxy)cyclohexane-1-carboxylic acid]: the pIC50 was 5.65.

For the compound `CCCc1nnnn1Cc1c(-c2ccc(O[C@H]3CCC[C@H](C(=O)O)C3)c(C)n2)nnn1C` [Example 114], the pIC50 was 6.90.

As for `CC(C)Cc1nnn(Cc2c(-c3ccc(O[C@H]4CCC[C@H](C(=O)O)C4)cn3)nnn2C)n1` [Example 254, (1S,3S)-3-((6-(5-((5-isobutyl-2H-tetrazol-2-yl)methyl)-1-methyl-1H-1,2,3-triazol-4-yl)pyridin-3-yl)oxy)cyclohexane-1-carboxylic acid], the pIC50 was 6.54.

Take `Cc1nc(-c2nnn(C)c2Cc2nc(COC(C)C)no2)ccc1O[C@H]1CCC[C@H](C(=O)O)C1` [Example 248, (1S,3S)-3-((6-(5-((3-(isopropoxy-methyl)-1,2,4-oxadiazol-5-yl)methyl)-1-methyl-1H-1,2,3-triazol-4-yl)-2-methylpyridin-3-yl)oxy)cyclohexane-1-carboxylic acid]: the pIC50 was 7.21.

With `CCCCOc1nnn(Cc2c(-c3ccc(O[C@H]4CCC[C@H](C(=O)O)C4)c(C)n3)nnn2C)n1` [Example 345, (1S,3S)-3-[(6-{5-[(5-butoxy-2H-1,2,3,4-tetrazol-2-yl)methyl]-1-methyl-1H-1,2,3-triazol-4-yl}-2-methylpyridin-3-yl)oxy]cyclo-hexane-1-carboxylic acid], the pIC50 was 7.49.

For the compound `Cc1nc(-c2nnn(C)c2CNc2nnc(CC3CC3)o2)ccc1O[C@H]1CCC[C@H](C(=O)O)C1` [Example 56], the pIC50 is 6.87.

As to `CCC(C)c1nc(NCc2c(-c3ccc(O[C@H]4CCC[C@H](C(=O)O)C4)c(C)n3)nnn2C)no1` (stereo partly drawn) [Example 178], the pIC50 is 7.56.

Consider `Cc1nc(-c2nnn(C)c2Cc2nnc(Cc3ccccc3)o2)ccc1O[C@H]1CCC[C@H](C(=O)O)C1` [Example 73, (1 S,3 S)-3-((6-(5-((5-benzyl-1,3,4-oxadiazol-2-yl)methyl)-1-methyl-1H-1,2,3-triazol-4-yl)-2-methylpyridin-3-yl)oxy)cyclohexane-1-carboxylic acid], for which the pIC50 is 7.26.

On to `Cc1nc(-c2nnn(C)c2CNc2cc(C(C)C)nn2C)ccc1O[C@H]1CCC[C@H](C(=O)O)C1` [Example 125], for which the pIC50 is 6.20.

`Cc1nc(-c2nnn(C)c2Cn2nnnc2Cc2ccc(Cl)cc2)ccc1O[C@H]1CCC[C@H](C(=O)O)C1` [Example 325, (1S,3S)-3-((6-(5-((5-(4-chloro-benzyl)-1H-tetrazol-1-yl)methyl)-1-methyl-1H-1,2,3-triazol-4-yl)-2-methylpyridin-3-yl)oxy)cyclo-hexane-1-carboxylic acid]: the pIC50 is 6.78.

The assay is the same for the next values; noted with them: read-out: hLPA1 IC50.
Regarding `CCCCn1nnnc1Cc1c(-c2ccc(O[C@H]3CCC[C@H](C(=O)O)C3)c(C)n2)nnn1C` [Example 365, (1S,3S)-3-((6-(5-((1-butyl-1H-tetrazol-5-yl)methyl)-1-methyl-1H-1,2,3-triazol-4-yl)-2-methylpyridin-3-yl)oxy)cyclohexane-1-carboxylic acid], the pIC50 is 6.49.

In the case of `Cc1ccc(-n2nnc(NCc3c(-c4ccc(O[C@H]5CCC[C@H](C(=O)O)C5)c(C)n4)nnn3C)n2)cc1` [Example 385, (1S,3S)-3-((2-methyl-6-(1-methyl-5-(((2-(p-tolyl)-2H-tetrazol-5-yl)amino)methyl)-1H-1,2,3-triazol-4-yl)pyridin-3-yl)oxy)cyclohexane-1-carboxylic acid], the pIC50 was 6.80.

Turning to `Cc1ccccc1-n1nnc(NCc2c(-c3ccc(O[C@H]4CCC[C@H](C(=O)O)C4)c(C)n3)nnn2C)n1` [Example 381, (1S,3S)-3-((2-methyl-6-(1-methyl-5-(((2-(o-tolyl)-2H-tetrazol-5-yl)amino)methyl)-1H-1,2,3-triazol-4-yl)pyridin-3-yl)oxy)cyclohexane-1-carboxylic acid], the pIC50 is 6.50.

With `CCc1nc(-c2nnn(C)c2CNc2nc(C(C)C)ns2)ccc1O[C@H]1CCC[C@H](C(=O)O)C1` [Example 398, (1S,3S)-3-((2-ethyl-6-(5-(((3-isopropyl-1,2,4-thiadiazol-5-yl)amino)methyl)-1-methyl-1H-1,2,3-triazol-4-yl)pyridin-3-yl)oxy)cyclohexane-1-carboxylic acid], the negative logarithm of the IC50 (pIC50) was 7.23.
